The test can be described thus: Inhibition of Huntingtin polyQ 49 mutant in Huntington's disease patient derived human iPSC cells incubated for 48 hrs by HTRF assay. Type of test: cell-based. (In general: TR-FRET usually uses a lanthanide donor and a delayed reading to cut background.)

pIC50: −log10 of the molar value.

The molecule `Cc1cn2nc(-c3cc(F)c4nn(C5CCNCC5)nc4c3)cc(C(F)F)c2n1` gave a pIC50 of over 7.00.
`Cc1cn2nc(-c3cc(F)c4nc(C5CCNC5)cn4c3)cc(C)c2n1` (stereo unspecified) gave a pIC50 of over 7.00.
`Cc1cn2nc(-c3cc(F)c4nc(C5CCNCC5)cn4c3)cc(C)c2n1` showed a pIC50 of over 7.00.
Molecule `Cc1cn2nc(-c3cc(F)c4nc(N5CCC(N(C)C)CC5)oc4c3)cc(C(F)(F)F)c2n1` had a pIC50 of over 7.00.
In turn, `Cc1cn2nc(-c3cc(F)c4nc(C5CCN(C6CC6)CC5)cn4c3)cc(C(F)F)c2n1` showed a pIC50 of over 7.00.
The result for `Cc1cn2nc(-c3cc(F)c4nc(C5CCN(C6COC6)CC5)cn4c3)cc(C)c2n1` reads over 7.00.

For orientation: pIC50 means the negative decadic logarithm of the IC50, by convention in mol/L. Read a high pIC50 as a low IC50.

Source of the values: ChEMBL document CHEMBL5344454 (ACS Med Chem Lett, 2024).
